ChEMBL document CHEMBL1255427, “Lack of a clinically relevant effect of an antacid on the pharmacokinetics of lersivirine” (Antimicrob Agents Chemother, 2010)

Assays:
Homo sapiens [1] = organism: Homo sapiens; test: Toxicity in healthy human assessed as serious adverse events at 750 mg; assay type: organism-based; details: in vivo
Homo sapiens [2] = organism: Homo sapiens; test: Plasma concentration in healthy human plasma at 750 mg by HPLC-tandem mass spectrometry method; assay type: ADME, organism-based; details: in vivo
Homo sapiens [3] = organism: Homo sapiens; test: Toxicity in healthy human assessed as death at 750 mg; assay type: organism-based; details: in vivo
Homo sapiens [4] = test: Toxicity in healthy human assessed as gastrointestinal tract related toxicity at 750 mg coadministered with 20 ml of antacid; assay type: organism-based; details: in vivo
[5] = Tmax in healthy human plasma at 750 mg coadministered with 20 ml of antacid by HPLC-tandem mass spectrometry method; assay type: ADME, organism-based
[6] = Half life in healthy human plasma at 750 mg by HPLC-tandem mass spectrometry method; assay type: ADME, organism-based
[7] = Cmax in healthy human plasma at 750 mg after 24 hrs by HPLC-tandem mass spectrometry method; assay type: ADME, organism-based; set-up: dose 750 mg
Homo sapiens [8] = test: Plasma concentration in healthy human plasma at 750 mg coadministered with 20 ml of antacid by HPLC-tandem mass spectrometry method; assay type: ADME, organism-based; details: in vivo
Homo sapiens [9] = test: Toxicity in healthy human assessed as serious adverse events at 750 mg coadministered with 20 ml of antacid; assay type: organism-based; details: in vivo
[10] = Tmax in healthy human plasma at 750 mg by HPLC-tandem mass spectrometry method; assay type: ADME, organism-based
[11] = Half life in healthy human plasma at 750 mg coadministered with 20 ml of antacid by HPLC-tandem mass spectrometry method; assay type: ADME, organism-based
[12] = Cmax in healthy human plasma at 750 mg after 24 hrs coadministered with 20 ml of antacid by HPLC-tandem mass spectrometry method; assay type: ADME, organism-based; set-up: dose 750 mg
[13] = AUC (infinity) in healthy human plasma at 750 mg by HPLC-tandem mass spectrometry method; assay type: ADME, organism-based; set-up: dose 750 mg, time infinity
[14] = AUC (infinity) in healthy human plasma at 750 mg coadministered with 20 ml of antacid by HPLC-tandem mass spectrometry method; assay type: ADME, organism-based; set-up: dose 750 mg, time infinity
Homo sapiens [15] = test: Toxicity in healthy human assessed as death at 750 mg coadministered with 20 ml of antacid; assay type: organism-based; details: in vivo
Homo sapiens [16] = organism: Homo sapiens; test: Toxicity in healthy human assessed as gastrointestinal tract related toxicity at 750 mg; assay type: organism-based; details: in vivo

Cp (Homo sapiens [2]): 83.41 ng/mL | Tmax [5]: 2 h | half-life [6]: 6.91 h | Cmax [7]: 1520 ng/mL | Cp (Homo sapiens [8]): 64.41 ng/mL | Tmax [10]: 5 h | half-life [11]: 6.22 h | Cmax [12]: 1450 ng/mL | AUC(0-inf) [13]: 11000 ng·h/mL | AUC(0-inf) [14]: 11200 ng·h/mL
SMILES: CCc1nn(CCO)c(CC)c1Oc1cc(C#N)cc(C#N)c1 [LERSIVIRINE]
Activity (Homo sapiens [1]): Non-toxic | Activity (Homo sapiens [3]): Non-toxic | Activity (Homo sapiens [4]): Toxic | Activity (Homo sapiens [9]): Non-toxic | Activity (Homo sapiens [15]): Non-toxic | Activity (Homo sapiens [16]): Toxic
